Data from patent publication US5605911A, “Use of alpha-2 adrenergic drugs to prevent adverse effects of NMDA receptor hypofunction (NRH)” (priority 1995, dated 1997).

How the values were obtained:
[1] = tested on: KA and/or QUIS/AMPA classes of EAA receptors; assay: blocking of MK-801 neurotoxic side effects by non-NMDA antagonist drugs in vivo; settings: adult rats
Source text: In addition to the foregoing classes of drugs, the Applicants have also recently discovered that non-NMDA antagonist drugs which can penetrate the BBB and block the KA and/or QUIS/AMPA classes of EAA receptors.

cerebral cortex = settings: adult rat, literature; cited from earlier work
NMDA receptor = settings: humans, literature; cited from earlier work
PC/RS cortical neurons = assay: protection by anti-psychotic drugs against MK-801 (NRH)-induced vacuoles in rats; assay type: in vivo; settings: ip; for protection against vacuoles (activity in words): MK-801-treated rats
Experimental: Control animals received saline or DMSO, but no anti-psychotic drugs. Test animals were injected ip with an antipsychotic drug, listed above and in Table 2. Vacuoles were counted and data were processed as described in Example 1.

[2] = penetration of sulpiride into the CNS; assay type: in vivo; settings: in words
[3] = Sershen 1994; cited from earlier work

## NS(=O)(=O)c1cccc2c1c([N+](=O)[O-])cc1nc(O)c(O)nc12 [NBQX, 2,3-dihydroxy-6-nitro-7-sulfamoylbenzo(F)quinoxaline]
[1]
  block of neurotoxic side effects of NMDA antagonist drugs such as MK-801: can also block the neurotoxic side effects of NMDA antagonist drugs such as MK-801

## c1ccc(C2(N3CCCCC3)CCCCC2)cc1 [Phencyclidine]
Cerebral cortex
  pathomorphological changes in brain: produce pathomorphological changes in various corticolimbic regions of the adult rat brain
NMDA receptor
  psychotomimetic reactions: can induce a psychosis which is clinically indistinguishable from schizophrenia

## CCN1CCCC1CNC(=O)c1cc(S(N)(=O)=O)ccc1OC (centres unmarked) [Sulpiride]
PC/RS cortical neurons; Rattus norvegicus, Cortical neurone
  ED50: > 200 mg/kg
PC/RS cortical neurons
  protection against vacuoles (activity in words): Inactive
PC/RS cortical neurons; listed as sulpiride
  protection against vacuoles (activity in words): inactive
[2]
  time to penetrate into the CNS: several hours

## CC[C@H]1C[C@H]2C[C@H]3c4[nH]c5ccc(OC)cc5c4CCN(C2)[C@@H]13 [ibogaine]
[3]
  craving for cocaine: can suppress the craving for cocaine
